The source made the active and inactive calls.
What was measured:
Mus musculus [1] = assay: Antiinflammatory activity in mouse assessed as reduction of zymosan-induced neutrophil recruitment during peritonitis at 10 ng, iv administered 5 mins before zymosan challenge measured after 4 hrs by light microscopy/flow cytometry; assay type: functional, organism-based
Macrophage [2] = assay: Pro-resolving activity in human macrophages assessed as increase of phagocytosis of fluorescence-labeled yeast cell wall particles at 100 nM to 10 pM preincubated for 15 mins measured after 60 mins; assay type: functional, cell-based
Macrophage [3] = assay: Pro-resolving activity in human macrophages assessed as increase of phagocytosis of bisbenzimide-labeled apoptotic neutrophils at 100 nM to 10 pM preincubated for 15 mins measured after 60 mins; assay type: functional, cell-based
Mus musculus [4] = assay: Antiinflammatory activity in mouse assessed as reduction of zymosan-induced number of neutrophils recovered from peritoneal exudates at 10 ng, iv administered 5 mins before zymosan challenge measured after 4 hrs by light microscopy/flow cytometry; assay type: functional, organism-based

Measured: Activity

CC/C=C\C[C@H](O)\C=C/C=C/C=C/[C@H](O)C/C=C\C/C=C\CCC(=O)O
active: Mus musculus [1] | Macrophage [2] | Macrophage [3] | Mus musculus [4]

CC/C=C\C[C@H](O)\C=C/C=C/C=C/[C@H](O)C/C=C\CCCCCC(=O)O
active: Mus musculus [1] | Macrophage [2] | Macrophage [3] | Mus musculus [4]

From ChEMBL document CHEMBL3232707, “Total synthesis of the lipid mediator PD1n-3 DPA: configurational assignments and anti-inflammatory and pro-resolving actions” (J Nat Prod, 2014)
